Results published in US8168193B2, “Molecules, compositions, methods and kits for applications associated with flaviviruses” (National University of Singapore, priority 2003, dated 2012).
No end group written: not given here.

B1: Endoglycosidase H (protein, UniProt P04067 43-313, looked up)
Endo-beta-N-acetylglucosaminid …: APAPVKQGPTSVAYVEVNNNSMLNVGKYTLADGGGNAFDVAVIFAANINYDTGTKTAYLHFNENVQRVLDNAVTQIRPLQQQGIKVLLSVLGNHQGAGFANFPSQQAASAFAKQLSDAVAKYGLDGVDFDDEYAEYGNNGTAQPNDSSFVHLVTALRANMPDKIISLYNIGPAASRLSYGGVDVSDKFDYAWNPYYGTWQVPGIALPKAQLSPAAVEIGRTSRSTVADLARRTVDEGYGVYLTYNLDGGDRTADVSAFTRELYGSEAVRTP
notes: Endoglycosidase H (EC 3.2.1.96) from Streptomyces plicatus
B2: Papain (protein, UniProt P00784 134-345, looked up)
Papain: IPEYVDWRQKGAVTPVKNQGSCGSCWAFSAVVTIEGIIKIRTGNLNEYSEQELLDCDRRSYGCNGGYPWSALQLVAQYGIHYRNTYPYEGVQRYCRSREKGPYAAKTDGVRQVQPYNEGALLYSIANQPVSVVLEAAGKDFQLYRGGIFVGPCGNKVDHAVAAVGYGPNYILIKNSWGTGWGENGYIRIKRGTGNSYGVCGLYTSSFYPVKN
notes: Papain (EC 3.4.22.2) from Carica papaya, a cysteine endopeptidase
B3: vitronectin (protein, UniProt P04004 20-478, looked up)
Vitronectin: DQESCKGRCTEGFNVDKKCQCDELCSYYQSCCTDYTAECKPQVTRGDVFTMPEDEYTVYDDGEEKNNATVHEQVGGPSLTSDLQAQSKGNPEQTPVLKPEEEAPAPEVGASKPEGIDSRPETLHPGRPQPPAEEELCSGKPFDAFTDLKNGSLFAFRGQYCYELDEKAVRPGYPKLIRDVWGIEGPIDAAFTRINCQGKTYLFKGSQYWRFEDGVLDPDYPRNISDGFDGIPDNVDAALALPAHSYSGRERVYFFKGKQYWEYQFQHQPSQEECEGSSLSAVFEHFAMMQRDSWEDIFELLFWGRTSAGTRQPQFISRDWHGVPGQVDAAMAGRIYISGMAPRPSLAKKQRFRHRNRKGYRSQRGHSRGRNQNSRRPSRATWLSLFSSEESNLGANNYDDYRMDWLVPATCEPIQSVFFFSGDKYYRVNLRTRRVDTVDPPYPRSIAQYWLGCPAPGHL
notes: ECM protein, physiological ligand for integrin αVβ3

Key:
WNV [1] = conditions: Vero cells, EDTA 3-12 mM, 2 hrs at 37° C.
[2] = tested on: 105-kDa cell receptor protein; experiment: Virus Overlay Protein Binding Assay (VOPBA) on Vero plasma membrane proteins; conditions: for West Nile virus binding after removal of papain (VOPBA): Vero cells, papain 50 mU/ml 45 minutes, 0, 2 and 4 hours after removal, with or without cycloheximide 100 μg/ml; for West Nile virus binding to treated membrane proteins of Vero cells (VOPBA): Vero plasma membrane proteins
West Nile virus [3] = experiment: Protease, phospholipase, glycosidase, periodate and lectin pretreatment of Vero cells, then West Nile virus infection, plaque assay; type: cell-based; conditions: Vero cells pretreated 45 min at 25° C.; for effect of pretreatment of Vero cells on West Nile virus entry/infection: plaque assay at 12 hours p.i.
Procedure: Cell monolayers (Vero cells or N2A) of approximately 5×10^6 cells were washed twice with phosphate buffer saline (PBS) before enzyme treatment. Cell monolayers were incubated with the proteases and phospholipases, glycosidases and lectins (as listed below) in PBS at a pH of 7.0 for 45 min at 25° C. […] Cell monolayers were then incubated with West Nile virus (MOI=10) at 37° C. for 1 hour. Excess virus particles were inactivated with sodium citrate buffer (pH 2.8) for 10 minutes and the cell monolayer washed twice with PBS. Vero cells were then incubated at 37° C. for 12 hours. At 12 hours p.i., virus titers from the treated samples were determined by plaque assays. Three independent experiments were conducted for each set of enzymes used.
The enzymes used were; Proteases: Proteinase K (EC 3.4.21.64) from Tritirachium album, concentration of 10 μg/ml, 1 μg/ml & 0.1 μg/ml; α-chymotrypsin (EC 3.4.21.1) from bovine pancreas, concentration of 10 μg/ml & 1 μg/ml; trypsin (EC 3.4.21.4) from bovine pancreas, concentration of 10 μg/ml, 1 μg/ml & 0.1 μg/ml; Bromelain (EC 3.4.22.32) from pineapple stem, concentration of 20 mUnit/ml, 2 mUnit/ml & 0.2 mUnit/ml; Papain (EC 3.4.22.2) from Carica papaya, concentration of 50 mUnit/ml & 10 mUnit/ml. Phospholipases: Phospholipase A2 (EC 3.1.1.4) from bovine pancreas, concentration of 1 UNIT/ml & 0.1 UNIT/ml; Phospholipase C (EC 3.1.1.4.3) from Clostridium perfringes, concentration of 10 UNIT/ml & 1 UNIT/ml; Phospholipase D (EC 3.1.4.4) from peanut, concentration of 100 UNIT/ml & 10 UNIT/ml; Glycosidases: Endoglycosidase H (EC 3.2.1.96) from Streptomyces plicatus, concentration of 100 mUNIT/ml & 10 mUNIT/ml; O-glycosidase (EC3.2.1.97) from Diploccus pneumoniae, concentration of 1 mUNIT/ml & 0.1 mUNIT/ml; α-mannosidase (EC 3.2.1.24) from almonds, concentration of 1000 μ/ml, 100 μg/ml & 10 μg/ml; α-Fucosidase (EC 3.2.1.11) from almond meal, concentration of 100 mUNIT/ml & 10 mUNIT/ml; Heparinase I (EC 4.2.2.7) and Heparinase III (EC 4.2.2.2.8) from Flavobacterium heparinum, concentration of 1 UNIT/ml & 0.1 UNIT/ml. Lectins: Concanavalin-A from Jack bean, wheat germ agglutinin from Triticum vulgaris, phytohemagglutinin from Phaseolus spp., concentration of 1000 μg/ml & 100 μg/ml; Sodium periodate concentration of 1 mM & 0.1 mM. Cell viability after enzyme treatment was assessed by Trypan blue staining and observation under phase contrast microscope BX 60.
The enzymes or chemicals were used at concentrations known to be effective in reducing the entry of other known viruses (Borrow and Oldstone, 1992; Ramos-Castaneda et al., 1997; Salas-Benito and del Angel, 1997; Martinez-Barragan and del Angel, 2001). Results are expressed as the number of log unit inhibition with respect to untreated samples. At the same time, cell viability after treatments was also assessed by Trypan blue exclusion method.

[4] = tested on: 105-kDa cell receptor protein; experiment: Virus Overlay Protein Binding Assay (VOPBA) on N2A plasma membrane proteins
WNV [5] = experiment: Competitive inhibition of WNV entry into Vero cells with soluble recombinant WNV envelope DIII; type: cell-based, West Nile virus; conditions: 5 to 100 μg/ml, 30 min at 37° C.
Procedure: (§1) Vero cells were first incubated with different concentration (5 to 100 μg/ml) of DIII protein or BSA for 30 min at 37° C. Excess or unbound protein is removed by washing thrice with PBS. Radiolabeled WNV or Dengue virus (250 plaque forming unit, PFU) is added and incubated for 1 h at 37° C. Virus entry into Vero cells was determined by radioactive counts from a scintillation counter.

Dengue virus = experiment: Competitive inhibition of Dengue virus entry into Vero cells with soluble recombinant WNV envelope DIII; type: cell-based; conditions: at high concentration used
Procedure: as §1

West Nile virus [6] = experiment: Competitive physiological ligand binding assay, virus entry into Vero cells; type: cell-based; conditions: Vero cells incubated with ligand 1 hr, then radiolabeled virus 1 hr at 37° C.
Procedure: Competitive physiological ligand binding assay with fibronectin, vitronectin, heparin, chrondriotin sulphate, laminin and the peptides RGD1 and RGE1 reported in the sequence listing as SEQ ID NO: 6 and SEQ ID NO:7 was carried out. In particular Vero cells were incubated with different concentrations of ECM proteins, RGD peptides, or anti-integrin antibodies at 4° C. or 37° C. for 1 hr, washed, incubated with 50 μl of radiolabeled WNV, JEV at 37° C. for 1 hr and assessed for virus entry.

Row | Molecule | effect of pretreatment of Vero cells on West Nile virus entry/infection (West Nile virus [3]) | West Nile virus binding to treated membrane proteins of Vero cells (VOPBA) [2] | also measured
1 | O=C(O)CN(CCN(CC(=O)O)CC(=O)O)CC(=O)O [EDTA] | – | – | binding and subsequent entry of West Nile virus (WNV [1]): did not block
2 | C[C@@H]1C[C@@H]([C@H](O)CC2CC(=O)NC(=O)C2)C(=O)[C@@H](C)C1 [cycloheximide] | – | – | West Nile virus binding after removal of papain (VOPBA) [2]: virus binding was also observed
3 | [Na+].[O-][I+3]([O-])([O-])[O-] [sodium periodate] | substantially reduced | reduced in a dosage-dependent manner | –
4 | OCCS [β-mercaptoethanol] | – | did not disrupt virus binding | West Nile virus binding to treated membrane proteins of N2A cells (VOPBA) [4]: did not disrupt virus binding
5 | Concanavalin-A | prevented the entry | block the binding | –
6 | DIII protein: soluble His-tagged recombinant West Nile virus envelope domain III (350-390), comprising SEQ ID NO: 19 (SIPKLEIAGXFKDL; X: residue not identified in the source) | – | – | inhibition of entry of WNV into Vero cells (WNV [5]): significantly blocked; inhibition of entry of Dengue virus into Vero cells (Dengue virus): slightly block
7 | Heparinase I | minimal effect | – | –
8 | Heparinase III | minimal effect | – | –
9 | O-glycosidase | minimal effect | did not affect | West Nile virus binding to treated membrane proteins of N2A cells (VOPBA) [4]: did not affect
10 | RGD peptide: peptide RGD1 reported in the sequence listing as SEQ ID NO: 6 (RFDS; RGD1 amino acid sequence) | – | – | inhibition of West Nile virus infection by competitive ligands (West Nile virus [6]): partial inhibition
11 | fibronectin | – | – | inhibition of West Nile virus infection by competitive ligands (West Nile virus [6]): partial inhibition
12 | laminin | – | – | inhibition of West Nile virus infection by competitive ligands (West Nile virus [6]): partial inhibition
13 | phytohemagglutinin | – | no effect | –
14 | α-Fucosidase | minimal effect | – | –
15 | α-mannosidase | significant inhibition | No binding | West Nile virus binding to treated membrane proteins of N2A cells (VOPBA) [4]: No binding
16 | B1 | significant inhibition | No binding | West Nile virus binding to treated membrane proteins of N2A cells (VOPBA) [4]: No binding
17 | B2 | – | abolished | log unit inhibition of West Nile virus infection (West Nile virus [3]; virus titers at 12 hours p.i., with respect to untreated samples): ~5 log unit; West Nile virus binding to treated membrane proteins of N2A cells (VOPBA) [4]: abolished; West Nile virus binding after removal of papain (VOPBA) [2]: No virus binding
18 | B3 | – | – | inhibition of West Nile virus infection by competitive ligands (West Nile virus [6]): partial inhibition
